Where a SMILES comes first, the peptide text is derived from it.
Tests used:
Tau^Δ1‐250 = molecular target: T1, Tau^Δ1‐250 (Homo sapiens, UniProt P10636); test: ThT fluorescence, heparin-induced aggregation of Tau^Δ1‐250; format: biochemical; conditions: 5 µM heparin, pH 7.4, triplicate; for effect on Tau^Δ1‐250 aggregation (in words): ThT end-point 24 h, 20 µM Tau^Δ1‐250, 20 µM peptide
T1 construct: Tau^Δ1‐250 (an aggregate prone truncated version of full‐length Tau); made in house; host or cells: E. coli BL21(DE3)
T1 sequence (P10636 568-758, stated change not applied): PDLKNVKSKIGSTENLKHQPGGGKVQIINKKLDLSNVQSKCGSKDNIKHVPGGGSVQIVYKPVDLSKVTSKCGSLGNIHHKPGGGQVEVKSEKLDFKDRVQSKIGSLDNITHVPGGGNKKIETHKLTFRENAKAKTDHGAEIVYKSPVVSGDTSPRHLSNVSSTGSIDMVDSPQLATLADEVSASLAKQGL
Experimental: (§1) Fluorescence was measured (λex = 442 nm, λem = 483 nm), and data were normalized. […] The addition of inhibitor to the growth phase was controlled by adding an equivalent volume of buffer alone.
(§2) Experiments were conducted in triplicate and error bars were reported as standard deviation. Statistical analysis: p > 0.05, *p ≤ 0.05, **p ≤ 0.01, ***p ≤ 0.001.

[1] = ThT fluorescence, self-assembly of peptide inhibitors without Tau; format: physicochemical; conditions: ThT end-point 24 h, 37°C; 20 µM peptide without Tau, 5 µM heparin, 30 mM Tris, 1 mM DTT, 15 µM ThT, pH 7.4; triplicate
Experimental: as §1, §2

[2] = tested on: Tau repeat domain (RD) with the P301S mutation fused to mCer and mClo, HEK293 biosensor cells; test: Tau fibril seeding in FRET Tau biosensor cells; format: cell-based, human; conditions: biosensor cells, fibrils preincubated with 0–500 µM peptide; Figure 5C
Experimental: Tau biosensor cells culture: RD P301S Tau biosensor cells have been previously described,[45] and in this case v2L cells were used. Cells were cultured in 10 cm dishes containing Dulbecco's Modified Eagle's Medium (DMEM) (Gibco) enriched with 10% FBS (HyClone), 1% penicillin/streptomycin (Gibco), and 1% GlutaMAX (Gibco) at 37°C with 5% CO2 in a humidified incubator.
5 µM of tau fibrils (monomer equivalent) were incubated in PBS with peptide RI‐AG03 or scramble (0–500 µM) at 300 rpm agitation at 4°C for 16 h. The reaction was stopped by flash freezing in liquid nitrogen and stored at –20°C. Tau biosensor cells were plated at a density of 30,000 cells in 120 µL of media per well in a 96‐well plate. After 18 h, using Lipofectamine 2000 cells were transduced with 10 nM of treated fibrils that had been briefly sonicated for 30 s at 65 Amp (QSonica). Lipofectamine complexes were formed in 30 µL consisting of 14.17 µL Opti‐MEM (Gibco), 15 µL of treated fibrils diluted in PBS, and 0.83 µL lipofectamine 2000 (Invitrogen), bringing the total volume to 150 µL. […] Aggregates in Tau biosensors (10,000 minimum) were quantified by FRET flow cytometry in a LSRFortessa SORP (BD Biosciences). To detect the cerulean signal, cells were excited with a 405 nm laser, and fluorescence was captured at […]. For clover signal, cells were excited with a 488 nm laser and fluorescence was detected at 525/50 nm. Flow cytometry data were analyzed using a gating strategy previously described.[45], [47] The percentage of cells with positive FRET signal were quantified. Each condition was analyzed in quadruplicate. […]
To test RI‐AG03 efficacy in mammalian cells, we utilized a fluorescence resonance energy transfer (FRET) biosensor HEK293 cell line that stably expresses the Tau repeat domain (RD) with the P301S mutation fused to mCer and mClo. These cells[45] or prior generations[71] have been used extensively to quantify Tau seeding activity and measure intracellular aggregation.[71] […] Seeded aggregation was quantified by the percentage of FRET positivity.

Tau^2N4R = molecular target: T2, Tau^2N4R (Homo sapiens, UniProt P10636); test: ThT fluorescence end-point, heparin-induced aggregation of Tau^2N4R; format: biochemical; conditions: ThT end-point 216 h (9 days); Tau^2N4R, 20 µM peptide, 10 µM heparin, pH 7.4
T2 construct: and full‐length Tau (Tau^2N4R); made in house; host or cells: E. coli BL21
T2 sequence (P10636 1-441 isoform P10636-8): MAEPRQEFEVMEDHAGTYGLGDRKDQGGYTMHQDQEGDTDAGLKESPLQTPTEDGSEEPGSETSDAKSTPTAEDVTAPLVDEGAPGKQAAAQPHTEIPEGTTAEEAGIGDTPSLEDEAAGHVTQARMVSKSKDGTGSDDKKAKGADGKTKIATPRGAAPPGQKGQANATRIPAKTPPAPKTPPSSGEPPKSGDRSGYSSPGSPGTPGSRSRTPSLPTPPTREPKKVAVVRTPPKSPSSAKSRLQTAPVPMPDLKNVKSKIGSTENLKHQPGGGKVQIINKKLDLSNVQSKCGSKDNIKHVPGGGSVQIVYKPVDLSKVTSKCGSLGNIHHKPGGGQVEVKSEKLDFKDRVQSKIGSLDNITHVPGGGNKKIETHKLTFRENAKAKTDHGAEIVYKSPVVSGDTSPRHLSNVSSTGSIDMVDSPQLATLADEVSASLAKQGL
Experimental: as §1
FIGURE 3 Lead peptide RI‐AG03 dose‐response and target specificity. […] (C) Concentration‐dependent inhibition of by Tau^Δ1‐250 by RI‐AG03. […] (E) Concentration‐dependent inhibition of by Tau^2N4R by RI‐AG03. […] (F) log10 scatter graph of Tau^2N4R inhibition by RI‐AG03 employing a curve fitting algorithm to calculate the IC50 at 5 µM. Experiments were conducted in triplicate and error bars were reported as standard deviation. One factor repeated measures ANOVA + Tukey post hoc statistical analysis: p > 0.05, *p ≤ 0.05, **p ≤ 0.01, ***p ≤ 0.001.

Row | effect on Tau^Δ1‐250 aggregation (in words) (Tau^Δ1‐250) | self-aggregation of peptide (in words) [1] | Structure (SMILES) | other results
1 | no additional benefit | – | CC[C@H](C)[C@H](NC(=O)[C@H](CCC(N)=O)NC(=O)[C@@H](NC(=O)CNC(=O)[C@H](CCCNC(=N)N)NC(C)=O)C(C)C)C(=O)N[C@H](C(=O)N[C@@H](Cc1ccc(O)cc1)C(=O)N[C@@H](CCCCN)C(=O)N1CCC[C@H]1C(=O)NCC(=O)N[C@@H](CCCNC(=N)N)C(=O)N[C@@H](CCCNC(=N)N)C(=O)N[C@@H](CCCNC(=N)N)C(=O)N[C@@H](CCCNC(=N)N)C(N)=O)C(C)C [AG02PR5] (Ac-RGVQIVYKPGRRRR-NH2) | –
2 | no effect on aggregation | – | CC(=O)N[C@@H](CCCNC(=N)N)C(=O)N[C@@H](CCCNC(=N)N)C(=O)N[C@@H](CCCNC(=N)N)C(=O)N[C@@H](CCCNC(=N)N)C(=O)N[C@@H](CCCNC(=N)N)C(=O)N[C@@H](CCCNC(=N)N)C(=O)N[C@@H](CCCNC(=N)N)C(=O)N[C@@H](CCCNC(=N)N)C(=O)N[C@@H](CCCNC(=N)N)C(N)=O [Poly‐arginine, reference compound] | –
3 | – | minimal self‐aggregation | CC[C@H](C)[C@H](NC(=O)[C@H](CCC(N)=O)NC(=O)[C@@H](NC(=O)CNC(=O)[C@H](CCCNC(=N)N)NC(C)=O)C(C)C)C(=O)N[C@@H](CCCCNC(C)=O)C(=O)N[C@@H](Cc1ccc(O)cc1)C(=O)N[C@@H](CCCCN)C(=O)N1CCC[C@H]1C(=O)NCC(=O)N[C@@H](CCCNC(=N)N)C(=O)N[C@@H](CCCNC(=N)N)C(=O)N[C@@H](CCCNC(=N)N)C(=O)N[C@@H](CCCNC(=N)N)C(=O)N[C@@H](CCCNC(=N)N)C(=O)N[C@@H](CCCNC(=N)N)C(=O)N[C@@H](CCCNC(=N)N)C(=O)N[C@@H](CCCNC(=N)N)C(N)=O [AG03] (Ac-RGVQIK(Ac)YKPGRRRRRRRR-NH2) | inhibition of Tau^Δ1‐250 aggregation (Tau^Δ1‐250; ThT end-point after 24 h, 37°C, 20 µM Tau^Δ1‐250, 20 µM peptide (equimolar), 30 mM Tris, 1 mM DTT, 15 µM ThT): ~53%
4 | did not affect peptide inhibitory action | – | CC[C@H](C)[C@H](NC(=O)[C@H](CCC(N)=O)NC(=O)[C@@H](NC(=O)CNC(=O)[C@H](CCCNC(=N)N)NC(=O)[C@H](CCCNC(=N)N)NC(=O)[C@H](CCCNC(=N)N)NC(=O)[C@H](CCCNC(=N)N)NC(C)=O)C(C)C)C(=O)N[C@H](C(=O)N[C@@H](Cc1ccc(O)cc1)C(=O)N[C@@H](CCCCN)C(=O)NCC(=O)N[C@@H](CCCNC(=N)N)C(N)=O)C(C)C [AGR502] (Ac-RRRRGVQIVYKGR-NH2) | –
5 | – | demonstrated self‐aggregation ability | CC(=O)NCCCC[C@H](NC(=O)[C@H](CCC(N)=O)NC(=O)[C@@H](NC(=O)CNC(=O)[C@H](CCCNC(=N)N)NC(C)=O)C(C)C)C(=O)N[C@H](C(=O)N[C@@H](Cc1ccc(O)cc1)C(=O)N[C@@H](CCCCN)C(=O)NCC(=O)N[C@@H](CCCNC(=N)N)C(N)=O)C(C)C [AG02∆I] (Ac-RGVQK(Ac)VYKGR-NH2) | –
6 | – | self‐aggregated | CC[C@H](C)[C@H](NC(=O)[C@H](CCC(N)=O)NC(=O)[C@@H](NC(=O)CNC(=O)[C@H](CCCNC(=N)N)NC(C)=O)C(C)C)C(=O)N[C@H](C(=O)N[C@@H](CC(N)=O)C(=O)N[C@@H](CCCCN)C(=O)NCC(=O)N[C@@H](CCCNC(=N)N)C(N)=O)[C@@H](C)CC [AG01] (Ac-RGVQIINKGR-NH2) | –

Row | Structure (SMILES) | effect on Tau^Δ1‐250 aggregation (in words) (Tau^Δ1‐250) | self-aggregation of peptide (in words) [1] | other results
7 | CC[C@H](C)[C@H](NC(=O)[C@H](CCC(N)=O)NC(=O)[C@@H](NC(=O)CNC(=O)[C@H](CCCNC(=N)N)NC(C)=O)C(C)C)C(=O)N[C@H](C(=O)N[C@@H](Cc1ccc(O)cc1)C(=O)N[C@@H](CCCCN)C(=O)NCC(=O)N[C@@H](CCCNC(=N)N)C(=O)N[C@@H](Cc1ccc(O)cc1)C(=O)NCC(=O)N[C@@H](CCCNC(=N)N)C(=O)N[C@@H](CCCCN)C(=O)N[C@@H](CCCCN)C(=O)N[C@@H](CCCNC(=N)N)C(=O)N[C@@H](CCCNC(=N)N)C(=O)N[C@@H](CCC(N)=O)C(=O)N[C@@H](CCCNC(=N)N)C(=O)N[C@@H](CCCNC(=N)N)C(=O)N[C@@H](CCCNC(=N)N)C(N)=O)C(C)C [AG02TAT] (Ac-RGVQIVYKGRYGRKKRRQRRR-NH2) | no significant additional inhibitory benefits | greater self‐association into β‐sheets than all other AG02‐derived peptides | –
8 | CC[C@H](C)[C@H](NC(=O)[C@H](CCC(N)=O)NC(=O)[C@@H](NC(=O)CNC(=O)[C@H](CCCNC(=N)N)NC(C)=O)C(C)C)C(=O)N[C@@H](CCCCNC(C)=O)C(=O)N[C@@H](Cc1ccc(O)cc1)C(=O)N[C@@H](CCCCN)C(=O)NCC(=O)N[C@@H](CCCNC(=N)N)C(N)=O [AG02∆V] (Ac-RGVQIK(Ac)YKGR-NH2) | – | demonstrated a tendency for self‐aggregation, though to a smaller extent | –
9 | CC[C@H](C)[C@H](NC(=O)[C@H](CCCCN)NC(=O)[C@@H]1CCCN1C(=O)[C@H](CCC(N)=O)NC(=O)CNC(=O)[C@H](CCCNC(=N)N)NC(C)=O)C(=O)N[C@@H](CCCCNC(C)=O)C(=O)N[C@@H](Cc1ccc(O)cc1)C(=O)N[C@H](C(=O)NCC(=O)N[C@@H](CCCNC(=N)N)C(=O)N[C@@H](CCCNC(=N)N)C(=O)N[C@@H](CCCNC(=N)N)C(=O)N[C@@H](CCCNC(=N)N)C(=O)N[C@@H](CCCNC(=N)N)C(=O)N[C@@H](CCCNC(=N)N)C(=O)N[C@@H](CCCNC(=N)N)C(=O)N[C@@H](CCCNC(=N)N)C(N)=O)C(C)C [Scramble AG03, reference compound] (Ac-RGQPKIK(Ac)YVGRRRRRRRR-NH2) | no effect on aggregation | – | concentrations with peptide‐induced toxicity (decrease in FRET positivity) [2]: above 100 µM; effect on Tau^2N4R aggregation (in words) (Tau^2N4R): did not suppress aggregation

Reference: PMC11567856, “A novel peptide‐based tau aggregation inhibitor as a potential therapeutic for Alzheimer's disease and other tauopathies” (Alzheimer's & Dementia, 2024)
